Assay results: paper PMC11510023, “A Novel Cold-Adapted Nitronate Monooxygenase from Psychrobacter sp. ANT206: Identification, Characterization and Degradation of 2-Nitropropane at Low Temperature” (Microorganisms, 2024)

Tested on: T1, rPsNMO
T1 construct: gene psnmo; N-terminal His-tag, pET28a(+), E. coli BL21(DE3)
Assay: nitrite release, colorimetric at […] nm; Lineweaver-Burk
Type: biochemical, Psychrobacter sp. ANT206
Conditions: 30 °C, pH 7.5 potassium phosphate, 6-12 mM 2-NP; substrate pre-equilibrated 24 h with equal KOH to give the anionic form (propane-2-nitronate)

2-NP showed a Km of 10.3 mM.
